This note sets out measurements from patent publication US10774053B2, “HIV protease inhibitors” (Gilead Sciences, Inc., priority 2017, dated 2020).

The test system of data set [1] is HIV-1 (IIIB) in MT-4 cells. Description: microbe, parasite or virus in culture. Type of data set: cell-based. The note with it: HIV-1, read-out: MT4 EC50.
In a further data set the target is recombinant HIV protease (Human immunodeficiency virus type 1 group M subtype B (isolate HXB2) (HIV-1), UniProt P04585). Kind of data set: biochemical. The data set is classed as biochemical. The method, then:
HIV Protease Enzyme Inhibition (PI) Activity
Inhibitor potency against HIV protease was measured using an enzymatic assay with a fluorogenic readout. To a reaction buffer containing 100 mM ammonium acetate at pH 5.3, 100 mM NaCl, 1 mM EDTA, 1 mM DTT, 0.25 mg/mL BSA and 1% DMSO were added 10 nM of recombinant HIV protease (concentration based on protein monomer) and test compound at one of various concentrations. […] The total volume of the assay solution was 100 μL. […] The slopes of the progress curves were the measure of reaction rates. Reaction rates were plotted as a function of inhibitor concentration, and the data were fit with a four-parameter logistic fit using Graphpad PRISM software to yield IC50 values.

Data set [2] is described as follows: Liver microsomal stability, human liver microsomes. The note with it: for half-life at 1 uM: human, liver microsomes. The method, then: Liver Microsomal Stability Protocol
Test compounds and one control compound (verapamil) were tested in 3 different species in duplicate sets.
Test compound concentration: 1 uM; Protein concentration: 0.5 mg/mL (for dog, rat, and human liver microsomes); Cofactor: NADPH-Regenerating system (NRS) solution; Time-points: 2, 12, 25, 45, and 65 minutes.
Reaction Composition (in Each Incubation Well) Contains:
At an incubation temperature of 37° C., the reaction was started with addition of NADPH Regeneration System, at each time point, 25 uL of the reaction mixture was removed and added to a plate with 225 uL quenching solution (50% MeOH, 25% ACN, 25% H2O, and 200 nM labetalol as internal standard). After plates were vortexed, they were centrifuged for 30 minutes to remove proteins. About 100 μL supernatant was removed to a new plate and diluted with 150 μL water. About 20 μL of the mixture was injected into LC/MS/MS system to monitor the compound's response. In vitro measured t1/2 was used to calculate Clint values.

Another data set deals with recombinant human BACE-1 (Homo sapiens (Human), UniProt P56817). Kind of data set: Beta-secretase (BACE) inhibition assay, fluorogenic enzymatic assay. The data set is classed as biochemical. The method, then: Beta-Secretase (BACE) Inhibition Assay
Sequence of recombinant human BACE-1 (P56817 46-501): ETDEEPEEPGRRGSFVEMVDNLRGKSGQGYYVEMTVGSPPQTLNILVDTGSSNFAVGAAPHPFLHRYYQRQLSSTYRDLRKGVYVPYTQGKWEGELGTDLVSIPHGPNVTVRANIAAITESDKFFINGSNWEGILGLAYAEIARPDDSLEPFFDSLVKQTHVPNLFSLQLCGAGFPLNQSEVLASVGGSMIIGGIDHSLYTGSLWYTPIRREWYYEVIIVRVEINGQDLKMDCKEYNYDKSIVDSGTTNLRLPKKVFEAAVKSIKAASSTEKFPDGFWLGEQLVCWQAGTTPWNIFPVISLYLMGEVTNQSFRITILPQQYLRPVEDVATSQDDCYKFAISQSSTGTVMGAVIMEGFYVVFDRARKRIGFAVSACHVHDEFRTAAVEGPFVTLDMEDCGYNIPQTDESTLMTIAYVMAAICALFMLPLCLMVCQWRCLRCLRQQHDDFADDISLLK
Inhibitory potency against β-secretase (BACE) was measured using an enzymatic assay with a fluorogenic readout. 50 nM of recombinant human BACE-1 (R&D Systems) and test compound at one of various concentrations were added to a reaction buffer containing 20 mM sodium acetate at pH 4.8, with 0.06% Triton X-100, and 1% DMSO. […] The total volume of the assay solution was 100 μL. […] The slopes of the progress curves were the measure of reaction rates. Reaction rates were plotted as a function of inhibitor concentration, and the data were fit with a four-parameter logistic fit using Graphpad PRISM software to yield IC50 values.

The test system of data set [3] is single replication cycle recombinant virus containing the protease and reverse transcriptase coding regions of HIV-1 from a patient blood sample. Type of data set: cell-based. An excerpt: Resistance testing was done by Monogram Biosciences using their proprietary PhenoSense HIV assay.
Where [4] appears, read: recombinant HIV protease, fluorogenic enzymatic assay, read-out: HIV PI IC50.
Setting [5] is: Human immunodeficiency virus 1, IIIB, MT4, MT-4 cells.

SMILES strings stand for the structures. Like-named read-outs stand apart in the source and are kept apart here. A value given as a limit tells only on which side of the number the result lay.

In general, EC50 refers to the concentration that produces a half-maximal response. The term IC50 denotes the concentration at which inhibition is half-maximal. In the case of `CC(C)(C)C[C@]1(c2ccc(-c3cnn(C4CC4)c3)cc2)NC(=N)N([C@H](COC(=O)NC2(C(F)(F)F)CC2)c2ccc(Cl)c(-c3ncnn3C(F)F)c2)C1=O` [Compound 164], the EC50 in data set [1] (MT-4 cells) was found to be 16.5 nM. The IC50 at recombinant HIV protease (setting [4]) is 2.6 nM.
As for `CC(C)(C)C[C@]1(c2ccc(-c3ccn(C4CC4)n3)cc2)NC(=N)N([C@H](COC(=O)NC2(C(F)(F)F)CC2)c2ccc(Cl)c(-n3ncnc3C(F)F)c2)C1=O` [Compound 214], the EC50 in data set [1] (setting [5]) came out at 11.5 nM. Also, the IC50 at recombinant HIV protease was determined as 3 nM.
A word on the half-life: it is the time in which the quantity being followed falls by half. A higher half-life goes with slow decline. For the compound `CC(C)(C[C@]1(c2ccc(-c3cnn(C4CC4)n3)cc2)NC(=N)N([C@H](COC(=O)NC2(C(F)(F)F)CC2)c2ccc(Cl)c(-n3ncnc3C(F)F)c2)C1=O)C(F)(F)F` [Compound 270], the EC50 in data set [1] (setting [5]) turned out to be 19.1 nM. The compound further came in with a half-life at 1 uM in data set [2] of at least 6.58 h. The IC50 at recombinant human BACE-1 is above 100000 nM.
The corresponding values for `CC(C)(C)C[C@]1(c2ccc(-c3cnn(C(F)F)c3)cc2F)NC(=N)N([C@H](COC(=O)NC2(C(F)(F)F)CC2)c2ccc(Cl)c(-n3ncnc3C(F)F)c2)C1=O` [Compound 195] are 10.5 nM, at least 6.58 h and above 100000 nM.
`COC(=O)N[C@H](C(=O)N[C@@H](Cc1ccccc1)[C@@H](O)CN(Cc1ccc(-c2ccccn2)cc1)NC(=O)[C@@H](NC(=O)OC)C(C)(C)C)C(C)(C)C` [atazanavir, methyl N-[(2S)-1-[2-[(2S,3S)-2-hydroxy-3-[[(2S)-2-(methoxycarbonylamino)-3,3-dimethylbutanoyl]amino]-4-phenylbutyl]-2-[(4-pyridin-2-ylphenyl)methyl]hydrazinyl]-3,3-dimethyl-1-oxobutan-2-yl]carbamate]: the half-life at 1 uM in data set [2] lay in the range of 0.433 to 1.78 h. The “Fold change in EC50” value in data set [3] (Resistance mutations D30N L33F N88D L90M) was 5.27; in data set [3] (Resistance mutations L10F M46I I47V I50V I54V G73S I84V L90M) it was 30.0; in data set [3] (Resistance mutations L10F M46L I54V V82A I84V), above 101; in data set [3] (Resistance mutations L10F V32I M46I I47V I50V I54L I84V) it was 5.67; in data set [3] (Resistance mutations L10I L33F G48V I50L I54V/I V82A), 87.0; in data set [3] (Resistance mutations L10I L33F/L G48V G73S V82A), above 101. Further, the “Fold change in EC50” value in data set [3] (Resistance mutations L10I M46I I50V) was 1.99; in data set [3] (Resistance mutations L10I V32I L33F M46L I54L I84V L89V) it was 97.0; in data set [3] (Resistance mutations L10I V32I M46I I47V G48V I54M V82T L90M), 11.0; in data set [3] (Resistance mutations L10I V32I M46I I47V I50V I54L L90M), 36.0; in data set [3] (Resistance mutations L10V/L M46I I50L V82A), above 101; in data set [3] (Resistance mutations L33F M46I I50V L76V), 1.91.
As to `CC(C)(C)C[C@]1(c2ccc(-c3cnn(C(F)F)c3)cc2)NC(=N)N([C@H](COC(=O)NC2(C(F)(F)F)CC2)c2ccc(Cl)c(-n3cncn3)c2)C1=O` [Compound 236], the EC50 in data set [1] (setting [5]) worked out at 10.6 nM. In data set [2], this compound displayed a half-life at 1 uM of at least 6.58 h. In addition, the IC50 at recombinant human BACE-1 is above 100000 nM.
For `CC(C)(C)C[C@]1(c2ccc(-c3cnn(C(F)F)c3)cc2)NC(=N)N([C@H](COC(=O)NC(C)(C)C(F)(F)F)c2ccc(Cl)c(-n3cncn3)c2)C1=O` [Compound 242] the same measures were 6.83 nM, at least 6.58 h and above 100000 nM.
Turning to `CC(C)(C[C@]1(c2ccc(-c3cnn(C4CC4)n3)cc2)NC(=N)N([C@H](COC(=O)NC2(C(F)F)CC2)c2ccc(Cl)c(-c3ncnn3C(F)F)c2)C1=O)C(F)(F)F` [Compound 155], in data set [1] (setting [5]), the EC50 was 9.87 nM. Moreover, in data set [2], the half-life at 1 uM was at least 6.58 h. The IC50 at recombinant human BACE-1 is above 100000 nM.
For `CC(C)(C)C[C@]1(c2ccc(-c3cnn(C4CC4)n3)cc2)NC(=N)N([C@H](COC(=O)NC2(C(F)(F)F)CC2)c2ccc(Cl)c(-n3ncnc3C(F)F)c2)C1=O` [Compound 223], the EC50 in data set [1] (setting [5]) was determined as 13.1 nM. The half-life at 1 uM in data set [2] is at least 6.58 h. At recombinant human BACE-1, the IC50 is above 100000 nM.
For `CC(C)(F)C[C@]1(c2ccc(-c3cnn(C4CC4)c3)cc2)NC(=N)N([C@H](COC(=O)NC2(C(F)(F)F)CC2)c2ccc(Cl)c(-c3ncnn3C(F)F)c2)C1=O` [Compound 131] the same measures were 20.8 nM, at least 6.58 h and above 100000 nM.
For `CC(C)(C)C[C@]1(c2ccc(-c3cnn(C(F)F)c3)cc2)NC(=N)N([C@H](COC(=O)NC2(C(F)(F)F)CC2)c2ccc(F)c(-n3ncnc3C(F)F)c2)C1=O` [Compound 380], the EC50 in data set [1] (MT-4 cells) came out at 29.2 nM. The “Half-life in human liver microsomes” value in data set [2] (human liver microsomes 0.5 mg/mL, 1 uM compound, NADPH-regenerating system, 37° C.) was at least 6.58 h. For the same compound, the IC50 at recombinant HIV protease (setting [4]) was found to be 3.5 nM.
For `CC(C)(C)C[C@]1(c2ccc(-c3cnn(C4CC4)n3)cc2)NC(=N)N([C@H](COC(=O)NC2(C(F)(F)F)CC2)c2ccc(Cl)c(-c3ncnn3C(F)F)c2)C1=O` [Compound 146], the half-maximal effective concentration (EC50) in data set [1] (setting [5]) was determined as 10.3 nM. Besides, in data set [2], the half-life at 1 uM was at least 6.58 h. At recombinant human BACE-1, the IC50 is above 100000 nM.
The corresponding values for `C[C@H](NC(=O)OC[C@H](c1ccc(Cl)c(-n2ncnc2C(F)F)c1)N1C(=N)N[C@](CC(C)(C)C)(c2ccc(-c3cnn(C(F)F)c3)cc2)C1=O)C(F)(F)F` [Compound 311] are 7.01 nM, at least 6.58 h and above 100000 nM.
